Source: patent US20260262643A1, “HERBICIDAL BENZOXAZINES” (FMC CORPORATION, priority 2022, published 2026)

Key:
blackgrass [1] = experiment: Test A preemergence; assay type: in vivo, Alopecurus myosuroides
Summary of the method: (§1)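 Seeds in loam–sand blend received a directed preemergence soil spray of compound in non-phytotoxic solvent with surfactant; postemergence plants (2–10 cm, one- to two-leaf stage) were sprayed with the same formulation. After 10 days in greenhouse, injury was rated visually versus untreated controls, 0 (no effect) to 100 (complete control).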

corn [2] = experiment: Test A preemergence; assay type: in vivo, Zea mays
Summary of the method: as §1

foxtail, giant [3] = experiment: Test A preemergence; assay type: in vivo, Setaria faberi
Summary of the method: as §1

goosegrass [4] = experiment: Test A preemergence; assay type: in vivo, Eleusine indica
Summary of the method: as §1

kochia [5] = experiment: Test A preemergence; assay type: in vivo, Bassia scoparia
Summary of the method: as §1

oat, wild [6] = experiment: Test A preemergence; assay type: in vivo, Avena fatua
Summary of the method: as §1

pigweed, palmer [7] = experiment: Test A preemergence; assay type: in vivo, Amaranthus palmeri
Summary of the method: as §1

ragweed [8] = experiment: Test A preemergence; assay type: in vivo, Ambrosia artemisiifolia
Summary of the method: as §1

ryegrass, Italian [9] = experiment: Test A preemergence; assay type: in vivo, Lolium multiflorum
Summary of the method: as §1

soybean [10] = experiment: Test A preemergence; assay type: in vivo, Glycine max
Summary of the method: as §1

wheat [11] = experiment: Test A preemergence; assay type: in vivo, Triticum aestivum
Summary of the method: as §1

blackgrass [12] = experiment: Test A postemergence; assay type: in vivo, Alopecurus myosuroides; details: postemergence, 10 days; for Blackgrass plant response rating: 125 g ai/ha, 0 to 100 scale, 0 no effect, 100 complete control; for Plant response rating, Blackgrass: 500 g ai/ha, visual injury, 0 to 100 scale (0 no effect, 100 complete control)
Summary of the method: as §1

corn [13] = experiment: Test A postemergence; assay type: in vivo, Zea mays; details: postemergence, 10 days; for Corn plant response rating: 125 g ai/ha, 0 to 100 scale, 0 no effect, 100 complete control; for Plant response rating, Corn: 500 g ai/ha, visual injury, 0 to 100 scale (0 no effect, 100 complete control)
Summary of the method: as §1

foxtail, giant [14] = experiment: Test A postemergence; assay type: in vivo, Setaria faberi; details: postemergence, 10 days; for Foxtail, Giant plant response rating: 125 g ai/ha, 0 to 100 scale, 0 no effect, 100 complete control; for Plant response rating, Foxtail, Giant: 500 g ai/ha, visual injury, 0 to 100 scale (0 no effect, 100 complete control)
Summary of the method: as §1

goosegrass [15] = experiment: Test A postemergence; assay type: in vivo, Eleusine indica; details: postemergence, 10 days; for Goosegrass plant response rating: 125 g ai/ha, 0 to 100 scale, 0 no effect, 100 complete control; for Plant response rating, Goosegrass: 500 g ai/ha, visual injury, 0 to 100 scale (0 no effect, 100 complete control)
Summary of the method: as §1

kochia [16] = experiment: Test A postemergence; assay type: in vivo, Bassia scoparia; details: postemergence, 10 days; for Kochia plant response rating: 125 g ai/ha, 0 to 100 scale, 0 no effect, 100 complete control; for Plant response rating, Kochia: 500 g ai/ha, visual injury, 0 to 100 scale (0 no effect, 100 complete control)
Summary of the method: as §1

oat, wild [17] = experiment: Test A postemergence; assay type: in vivo, Avena fatua; details: postemergence, 10 days; for Oat, Wild plant response rating: 125 g ai/ha, 0 to 100 scale, 0 no effect, 100 complete control; for Plant response rating, Oat, Wild: 500 g ai/ha, visual injury, 0 to 100 scale (0 no effect, 100 complete control)
Summary of the method: as §1

pigweed, palmer [18] = experiment: Test A postemergence; assay type: in vivo, Amaranthus palmeri; details: postemergence, 10 days; for Pigweed, Palmer plant response rating: 125 g ai/ha, 0 to 100 scale, 0 no effect, 100 complete control; for Plant response rating, Pigweed, Palmer: 500 g ai/ha, visual injury, 0 to 100 scale (0 no effect, 100 complete control)
Summary of the method: as §1

ragweed [19] = experiment: Test A postemergence; assay type: in vivo, Ambrosia artemisiifolia; details: postemergence, 10 days; for Ragweed plant response rating: 125 g ai/ha, 0 to 100 scale, 0 no effect, 100 complete control; for Plant response rating, Ragweed: 500 g ai/ha, visual injury, 0 to 100 scale (0 no effect, 100 complete control)
Summary of the method: as §1

ryegrass, Italian [20] = experiment: Test A postemergence; assay type: in vivo, Lolium multiflorum; details: postemergence, 10 days; for Ryegrass, Italian plant response rating: 125 g ai/ha, 0 to 100 scale, 0 no effect, 100 complete control; for Plant response rating, Ryegrass, Italian: 500 g ai/ha, visual injury, 0 to 100 scale (0 no effect, 100 complete control)
Summary of the method: as §1

soybean [21] = experiment: Test A postemergence; assay type: in vivo, Glycine max; details: postemergence, 10 days; for Soybean plant response rating: 125 g ai/ha, 0 to 100 scale, 0 no effect, 100 complete control; for Plant response rating, Soybean: 500 g ai/ha, visual injury, 0 to 100 scale (0 no effect, 100 complete control)
Summary of the method: as §1

wheat [22] = experiment: Test A postemergence; assay type: in vivo, Triticum aestivum; details: postemergence, 10 days; for Wheat plant response rating: 125 g ai/ha, 0 to 100 scale, 0 no effect, 100 complete control; for Plant response rating, Wheat: 500 g ai/ha, visual injury, 0 to 100 scale (0 no effect, 100 complete control)
Summary of the method: as §1

horseweed = experiment: Test A postemergence; assay type: in vivo, Erigeron canadensis; details: postemergence, 10 days; for Horseweed plant response rating: 125 g ai/ha, 0 to 100 scale, 0 no effect, 100 complete control; for Plant response rating, Horseweed: 500 g ai/ha, visual injury, 0 to 100 scale (0 no effect, 100 complete control)
Summary of the method: as §1

barnyardgrass = experiment: Test B flooded paddy test; assay type: in vivo, Echinochloa crus-galli; details: 250 g ai/ha, Flood, 13 days, 0 to 100 scale (0 no effect, 100 complete control)
Summary of the method: (§2)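 Compound is introduced into paddy water covering soil by 3 cm, treating plants that have reached two leaves. Pots are kept flooded at that depth under greenhouse conditions. Assessment at 13 days gives a 0–100 visual control score.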

ducksalad = experiment: Test B flooded paddy test; assay type: in vivo, Heteranthera limosa; details: 250 g ai/ha, Flood, 13 days, 0 to 100 scale (0 no effect, 100 complete control)
Summary of the method: as §2

rice = experiment: Test B flooded paddy test; assay type: in vivo, Oryza sativa; details: 250 g ai/ha, Flood, 13 days, 0 to 100 scale (0 no effect, 100 complete control)
Summary of the method: as §2

sedge, umbrella = experiment: Test B flooded paddy test; assay type: in vivo, Cyperus difformis; details: 250 g ai/ha, Flood, 13 days, 0 to 100 scale (0 no effect, 100 complete control)
Summary of the method: as §2

[23] = 125 g ai/ha, visual injury after 10 days, 0 to 100 scale, 0 is no effect, 100 is complete control
[24] = 500 g ai/ha, 0 to 100 scale (0 no effect, 100 complete control), 10 days

Cc1cccc2c1O[C@@H](C)CN2C(=O)c1cccc(-n2cnc(C3CCCCC3)n2)c1 [Compound 82]
80: Plant response rating, Kochia (kochia [16])
60: Plant response rating, Ryegrass, Italian (ryegrass, Italian [9]; [23])
40: Plant response rating, Pigweed, Palmer (pigweed, palmer [7]; [24])
50: Plant response rating, Pigweed, Palmer (pigweed, palmer [18]) | Plant response rating, Ragweed (ragweed [19])
100: Plant response rating, Ryegrass, Italian (ryegrass, Italian [9]; [24])
30: Plant response rating, Ryegrass, Italian (ryegrass, Italian [20])
0: Plant response rating, Blackgrass (blackgrass [1]; [23]) | Plant response rating, Blackgrass (blackgrass [1]; [24]) | Plant response rating, Corn (corn [2]; [23]) | Plant response rating, Foxtail, Giant (foxtail, giant [3]; [23]) | Plant response rating, Kochia (kochia [5]; [23]) | Plant response rating, Kochia (kochia [5]; [24]) | Plant response rating, Pigweed, Palmer (pigweed, palmer [7]; [23]) | Plant response rating, Ragweed (ragweed [8]; [23]) | Plant response rating, Ragweed (ragweed [8]; [24]) | Plant response rating, Soybean (soybean [10]; [23]) | Plant response rating, Soybean (soybean [10]; [24]) | Plant response rating, Wheat (wheat [11]; [23]) | Plant response rating, Wheat (wheat [11]; [24]) | Blackgrass plant response rating (blackgrass [12]) | Corn plant response rating (corn [13]) | Goosegrass plant response rating (goosegrass [15]) | Oat, Wild plant response rating (oat, wild [17]) | Plant response rating, Oat, Wild (oat, wild [17]) | Pigweed, Palmer plant response rating (pigweed, palmer [18]) | Ragweed plant response rating (ragweed [19]) | Ryegrass, Italian plant response rating (ryegrass, Italian [20]) | Horseweed plant response rating (horseweed) | Plant response rating, Horseweed (horseweed) | Plant response rating, Barnyardgrass (barnyardgrass) | Plant response rating, Ducksalad (ducksalad) | Plant response rating, Rice (rice) | Plant response rating, Sedge, Umbrella (sedge, umbrella)
90: Plant response rating, Goosegrass (goosegrass [4]; [24]) | Soybean plant response rating (soybean [21]) | Plant response rating, Soybean (soybean [21])
10: Plant response rating, Corn (corn [2]; [24]) | Plant response rating, Oat, Wild (oat, wild [6]; [23]) | Plant response rating, Blackgrass (blackgrass [12]) | Plant response rating, Corn (corn [13]) | Foxtail, Giant plant response rating (foxtail, giant [14]) | Plant response rating, Foxtail, Giant (foxtail, giant [14]) | Wheat plant response rating (wheat [22]) | Plant response rating, Wheat (wheat [22])
20: Plant response rating, Foxtail, Giant (foxtail, giant [3]; [24]) | Plant response rating, Goosegrass (goosegrass [4]; [23]) | Plant response rating, Oat, Wild (oat, wild [6]; [24]) | Plant response rating, Goosegrass (goosegrass [15])
70: Kochia plant response rating (kochia [16])

CCCCc1ncn(-c2cccc(C(=O)N3C[C@H](C)Oc4c(C)cccc43)c2)n1 [Compound 86]
60: Plant response rating, Goosegrass (goosegrass [4]; [23]) | Plant response rating, Kochia (kochia [5]; [23])
50: Plant response rating, Goosegrass (goosegrass [15]) | Kochia plant response rating (kochia [16]) | Ragweed plant response rating (ragweed [19]) | Plant response rating, Ragweed (ragweed [19]) | Plant response rating, Ryegrass, Italian (ryegrass, Italian [20]) | Soybean plant response rating (soybean [21])
70: Plant response rating, Foxtail, Giant (foxtail, giant [3]; [24]) | Plant response rating, Kochia (kochia [5]; [24]) | Plant response rating, Ryegrass, Italian (ryegrass, Italian [9]; [23])
80: Plant response rating, Oat, Wild (oat, wild [6]; [24])
100: Plant response rating, Ryegrass, Italian (ryegrass, Italian [9]; [24]) | Plant response rating, Soybean (soybean [21])
10: Plant response rating, Wheat (wheat [11]; [24]) | Plant response rating, Corn (corn [13]) | Foxtail, Giant plant response rating (foxtail, giant [14]) | Goosegrass plant response rating (goosegrass [15]) | Plant response rating, Oat, Wild (oat, wild [17]) | Ryegrass, Italian plant response rating (ryegrass, Italian [20]) | Wheat plant response rating (wheat [22])
40: Plant response rating, Pigweed, Palmer (pigweed, palmer [18])
20: Plant response rating, Corn (corn [2]; [24]) | Plant response rating, Pigweed, Palmer (pigweed, palmer [7]; [23]) | Plant response rating, Foxtail, Giant (foxtail, giant [14]) | Pigweed, Palmer plant response rating (pigweed, palmer [18]) | Plant response rating, Wheat (wheat [22])
30: Plant response rating, Blackgrass (blackgrass [1]; [24]) | Plant response rating, Blackgrass (blackgrass [12])
65: Plant response rating, Ducksalad (ducksalad)
90: Plant response rating, Goosegrass (goosegrass [4]; [24]) | Plant response rating, Pigweed, Palmer (pigweed, palmer [7]; [24]) | Plant response rating, Kochia (kochia [16]) | Plant response rating, Sedge, Umbrella (sedge, umbrella)
0: Plant response rating, Blackgrass (blackgrass [1]; [23]) | Plant response rating, Corn (corn [2]; [23]) | Plant response rating, Foxtail, Giant (foxtail, giant [3]; [23]) | Plant response rating, Oat, Wild (oat, wild [6]; [23]) | Plant response rating, Ragweed (ragweed [8]; [23]) | Plant response rating, Ragweed (ragweed [8]; [24]) | Plant response rating, Soybean (soybean [10]; [23]) | Plant response rating, Soybean (soybean [10]; [24]) | Plant response rating, Wheat (wheat [11]; [23]) | Blackgrass plant response rating (blackgrass [12]) | Corn plant response rating (corn [13]) | Oat, Wild plant response rating (oat, wild [17]) | Horseweed plant response rating (horseweed) | Plant response rating, Horseweed (horseweed) | Plant response rating, Barnyardgrass (barnyardgrass) | Plant response rating, Rice (rice)
